Assay type in all cases: cell-based, human
Data set [1] has as its system H3T6ph at the AREs of the KLK2 and FKBP5 promoters. Put plainly: ChIP with α-H3T6ph antibody in LNCaP cells. The note with it: for androgen-induced phosphorylation of H3T6 at the AREs of the KLK2 and FKBP5 promoters upon knockdown: siRNA transfection three days before harvesting, 1×10^−8 M R1881, versus control siRNA. Here is the method:
(§1) ChIP and Re-ChIP experiments were performed as described^3. LNCaP cells were cultured for 15 min (ChIP) or 210 min (Re-ChIP) in the presence or absence of 1×10^−8M R1881 as indicated. Three days before harvesting, cells were transfected with siRNA (control for PKCβI: 5′-[…]-3′(SEQ ID NO 3); PKCβI: 5′-[…]-3′ (SEQ ID NO 4) (FIG. 3 b, c, f-i); control for PRK1: 5′-[…]-3′ (SEQ ID NO 14); PRK1: 5′-[…]-3′ (SEQ ID NO: 15) (FIG. 3 d, e); Invitrogen) using RNAifect (Qiagen) following the manufacturer's instructions. Immunoprecipitation was performed with specific antibodies (α-AR #06-680 lot 33529 (Upstate Biotechnology), α-H3K4me1 #ab8895 lot 535654, α-H3T6ph #ab14102 lot 481643, α-H3 #ab1791 lot 172452, α-PKCβI S660ph #ab23513 lot 596904 (Abcam), α-PKCβI (C-16) #sc-209 lot 481643, (Santa Cruz), α-H3K4me2 #cs-035-100 lot A391001 (Diagenode), α-PRK1^3, and α-LSD1^2) on protein A-Sepharose 4B (GE-Healthcare). For PCR, 2 μl out of 50 μl DNA extract was used. PCR primers for FKBP5 (+351/+443), KLK2 (−343/−90), SCN1A, SCN2A, GAPDH, and U6 were described previously^1, 2, 6, 11.

The test system of data set [2] is H3K4me2 and H3K4me1 at the KLK2 and FKBP5 promoters. The experiment in a line: ChIP with α-H3K4me2 and α-H3K4me1 antibodies in LNCaP cells. Here is the method: as §1
The test system of another data set is AR. Put plainly: Western blot analysis of endogenous AR in LNCaP cells. The note with it: siRNA transfection (FIG. 3c, 3e right panels). As for the experimental part:
Experiments were performed as described^2. Western blots were decorated as indicated.
A general note: Immunoblotting shows a protein as a band on a membrane.

Data set [3] concerns AR, LSD1, PKCβI on AR-regulated genes. Put plainly: ChIP for occupancy of AR, LSD1 and PKCβI on AR target promoters in LNCaP cells. As for the experimental part: as §1
For data set [4], the system named is PKCβI S660ph at the KLK2 and FKBP5 promoters. The experiment in a line: ChIP with α-PKCβI S660ph antibody in LNCaP cells. Here is the method: as §1

Here are results for three molecules from patent US20120329854A1, “Methods and Compounds for the Diagnosis and Treatment for Cancer” (UNIVERSITÄTSKLINIKUM FREIBURG, priority 2009, published 2012).

Entries after “also recorded” stand apart in the source; their conditions may differ.

As for “5′-CAUUGUCCUCGUAAGAGAUGCUAAA-3′ (listed as RNA, chemistry not given here) [siRNA directed against PKCβI]”, the “androgen-induced phosphorylation of H3T6 at the AREs of the KLK2 and FKBP5 promoters upon knockdown” value in data set [1] is given as “blocked; also recorded: blunts”. The “H3K4me2 and H3K4me1 levels at the KLK2 and FKBP5 promoters upon knockdown” value in data set [2] (in the absence of R1881 (FIG. 3f, g)) was “Elevated levels”; in data set [2] (in the presence of R1881 (FIG. 3f, g)) it was “reduces H3K4me2 and H3K4me1 levels to those observed in the absence of R1881”. Besides, in the data set on AR, the “levels of endogenous AR upon knockdown” value is “does not affect”. Also, the “ligand-dependent recruitment of AR and presence of LSD1 on AR-regulated genes upon knockdown” value in data set [3] (siRNA transfection (FIG. 3b, c)) is given as “does neither affect”.

For the molecule “5′-GAACAUGAUCCAGACCUACAGCAAU-3′ (listed as RNA, chemistry not given here) [siRNA directed against PRK1, siRNA against Protein-kinase-C-related kinase 1 (PRK1), Invitrogen, reference compound]”, the “androgen-induced phosphorylation of H3T6 at the AREs of the KLK2 and FKBP5 promoters upon knockdown” value in data set [1] is listed as “abolished”. The “levels of endogenous AR upon knockdown” value in the data set on AR is “does neither affect”. In addition, the “ligand-dependent activation of PKCβI (S660ph) upon knockdown” value in data set [4] (siRNA transfection, with R1881 (FIG. 3d, e)) was “blocked”. In data set [3] (siRNA transfection (FIG. 3d, e)), the “presence of PKCβI on AR target promoters upon knockdown” value is listed as “does neither affect”.

In the case of `C[C@]1(O)CC[C@H]2[C@@H]3CCC4=CC(=O)CCC4=C3C=C[C@@]21C` [R1881, reference compound], the “phosphorylation of H3T6 at the AREs of the KLK2 and FKBP5 promoters on addition of ligand” value in data set [1] (1×10^−8 M R1881 versus absence of ligand (FIG. 3b, c)) was “results in phosphorylation of H3T6”. The “levels of H3K4me2 and H3K4me1 at the KLK2 and FKBP5 promoters on addition of ligand” value in data set [2] (R1881 versus absence of ligand (FIG. 3f, g)) is given as “increased”. Moreover, the “phosphorylation at S660 of PKCβI at the KLK2 and FKBP5 promoters on addition of ligand” value in data set [4] (R1881 versus absence of ligand (FIG. 3b, c)) is reported as “androgen-induced phosphorylation at 5660 of PKCβI”.
